Consider 16 compounds from patent EP0550006B1, “Use of N-acyl derivatives of aminoalcohols for the manufacture of a medicament for the treatment of pathologies involving mast cells” (LIFEGROUP S.p.A., priority 1991, dated 1993).

No end group written: not given here.

The nature of data set [1]: organic solvent solubility. Particulars: for solubility: organic solvent or mixture.
A short description of another data set: water solubility. To be noted: for solubility: water; for water solubility: result in words.
For data set [2], the system named is mast cells. The data set is described as follows: in vivo mast cell degranulation induced by substance P, general subcutaneous administration. The arrangement: species or system Sprague Dawley rats. To be noted: rat; compound 20 mg/kg subcutaneous, 30 minutes before substance P 10^-6 M s.c. in the auricular pinna; average of 500-800 cells; solvent group 12. How it is done: In this case 2-weeks old rats (Sprague Dawley, Charles River) were firstly subcutaneously treated with 20 mg/kg of the substances under question and after 30 minutes were exposed to the degranulation stimulus by s.c. administration of substance P (10^-6 M) in the auricular pinna. Then the rats were sacrificed and the ear pinna removed for histological assessment of mast cell degranulation by counting the number of degranulated mast cells.
The biological parameter of evaluation was the percentage of degranulated mast cells.
In Tab. 2 the obtained results are reported on an average of 500-800 cells.

Data set [3] deals with inflammatory response. To be noted: substance extracted from yolk egg, administered to man; Coburn et al 1960; cited from earlier work.
In data set [4] the test system is human rheumatoid arthritis. Particulars: Perlik et al. 1974; cited from earlier work.
Data set [5] relates to inflammatory response. Particulars: tested animal; prior art; cited from earlier work.
The subject of data set [6] is mast cells. The data set is described as follows: in vivo mast cell degranulation induced by substance P, intradermal (topical) application on the auricular pinna. Details: species or system Sprague Dawley rats. Particulars: for % of degranulated mast cells: rat auricular pinna, compound 0.5 mg/kg intradermal, 10 minutes before substance P 10^-4 M intradermal, sacrifice after 30', solvent group 8. How it is done:
After 10 minutes a local administration of substance P ( 10^-4 M), able to induce a mast cells degranulation response, was carried out still by intradermal route. […] The inhibition degree in mast cells degranulation in the tissues of the animals treated with the compounds under question. in comparison with that of animals treated only with the physiological degranulation factor (substance P) was considered as a parameter for the biological activity.

The subject of data set [7] is Peritoneal mast cells of rat. The data set is described as follows: in vitro mast cell degranulation induced by substance P. To be noted: compound 10^-5 M, 30 minutes incubation, then substance P 10^-4M. The format is cell-based. How it is done: Peritoneal mast cells of rat were taken according to the standard methodology described by Lagunoff (1975, Tech. Biochem. Biophys. Morphol., 2, pp. 289-305).
The cells were then cultured in MEM which 10% fetal calf serum was added to and then incubated in a Haereus^R incubator for 30 minutes.
The derivatives under question at the concentration of 10^-5 M were added to the incubation medium.
At the end of the incubation, the physiological degranulation stimulus represented also in the case by the substance P (10^-4M) was added.
The cells were then centrifugated in order to remove the supernatant formed by the incubation medium and were placed onto a slide after coloration with toluidine blue, for the analysis of the morphological aspect at the optical microscope.
Also under these conditions the parameter to be considered was the percentage of degranulated cells after stimulation with the Substance P.

Another data set is described as follows: physchem. Particulars: organic solvent or mixture.

Broadly, the solubility is the dissolved amount per volume that the medium holds. Regarding `O=C(CCCCC1CCSS1)NCCO` (racemic) [Example 15, N-(2-hydroxyethy)-DL-α-lipoamide], the solubility (in data set [1] (ethanol); in the data set “water solubility”) was above 10000 µg/mL throughout. Further, in the data set with mast cells [2], the “% of degranulated mast cells” value was determined as 40%.
For the compound `CCCCCCCCCCCCCCCC(=O)NCCO` [Example 1, N-palmitoylethanolamide], in the data set with inflammatory response [3], the therapeutic effect entry is on record as “not significant”. Further, the “solubility in organic solvents” value in data set [1] (solvents in which soluble, in words) is reported as “hot methanol, CHCl3, DMSO”. The therapeutic efficacy entry in [4] is recorded as “beneficial effects were not so remarkable”. Also, the “inhibition of the inflammatory response” value with inflammatory response [5] is reported as “generic activity in inhibiting the inflammatory response”. For the same compound, the results for the “% of degranulated mast cells” value (in the data set with mast cells [6]; in [7]; in the data set with mast cells [2]) were 50%, 52% and 65%, respectively. Moreover, in “water solubility”, the water solubility result is listed as “insoluble”.
On to `CCCCCCCCCCCCCCCC(=O)N(CCO)CCO` [Example 2, N,N-bis(2-hydroxyethyl)-palmitamide], for which, in data set [1] (dmso), the solubility was above 10000 µg/mL. In addition, the entries for the “% of degranulated mast cells” value (with mast cells [6]; in data set [7]; in the data set with mast cells [2]) were 35%, 30% and 48%, respectively. The water solubility result in “water solubility” is “poorly soluble”.
`CCCCCCCCCCCCCCCC(=O)NCC(C)O` (stereo not drawn) [Example 3, N-(2-hydroxypropyl)-palmitamide]: the figures for the solubility in [1] (dmso) and in data set [1] (n-octanol) were above 3000 µg/mL and above 10000 µg/mL, respectively. In addition, the water solubility result in “water solubility” is reported as “poorly soluble”. For the same compound, in the data set with mast cells [2], the “% of degranulated mast cells” value was 49.5%.
Regarding `CCCCCCCCCCCCCCCCCC(=O)NCCO` [Example 4, N-(2-hydroxyethyl)-stearoylamide], the solubility in “physchem” (chloroform) is above 5000 µg/mL. Further, the “% of degranulated mast cells” value in the data set with mast cells [2] is reported as 60%.
With `CCCCCCCCCCCC(=O)NCCO` [Example 5, N-(2-hydroxyethyl)-lauroylamide], the solubility in data set [1] (chloroform) and in data set [1] (dmso) was above 10000 µg/mL each time. In “water solubility”, the water solubility entry is reported as “poorly soluble”. In addition, the “% of degranulated mast cells” value in the data set on mast cells [2] came to 54%.
For `CCCCCCCCCCCC(=O)N(CCO)CCO` [Example 6, N,N-bis(2-hydroxyethyl)-lauroylamide], the solubility in data set [1] (chloroform) and in [1] (dmso) was above 10000 µg/mL in each case. Moreover, in “water solubility”, the water solubility result is on record as “poorly soluble”. The “% of degranulated mast cells” value in the data set on mast cells [2] came to 28%.
With `O=C(CCCO)NCCO` [Example 7, N-(2-hydroxyethyl)-4-hydroxybutirramide], the solubility (in data set [1] (dmso); in data set [1] (ethanol); in the data set “water solubility”) was above 10000 µg/mL in each case.
In the case of `O=C(NCCO)c1ccccc1` [Example 8, N-(2-hydroxyethyl)-benzoylamide], the solubility (in data set [1] (dmso); in data set [1] (ethanol); in the data set “water solubility”) was above 10000 µg/mL in each case. In the data set with mast cells [2], the “% of degranulated mast cells” value was found to be 48.8%.
`O=C(c1ccccc1)N(CCO)CCO` [Example 9, N,N -bis-(2-hydroxyethyl)-benzoylamide]: the solubility (in data set [1] (dmso); in data set [1] (ethanol); in the data set “water solubility”) was above 10000 µg/mL in each case. In addition, the “% of degranulated mast cells” value with mast cells [2] was found to be 36.8%.
As for `CCCCCCCC/C=C\CCCCCCCC(=O)N(CCO)CCO` [Example 10, N,N -bis-(2-hydroxyethyl)-oleoylamide], the solubility in data set [1] (chloroform) and in [1] (dmso) was above 10000 µg/mL throughout. Besides, the water solubility entry in “water solubility” is on record as “poorly soluble”. The “% of degranulated mast cells” value in the data set with mast cells [2] turned out to be 44%.
Take `CCCCC/C=C\C/C=C\CCCCCCCC(=O)N(CCO)CCO` [Example 11, N,N -bis-(2-hydroxyethyl)-linoleoylamide]: the solubility in [1] (chloroform) and in data set [1] (ethanol) was above 10000 µg/mL each time. Besides, the water solubility entry in the data set “water solubility” is “poorly soluble”. In the data set with mast cells [2], the “% of degranulated mast cells” value turned out to be 71%.
For the compound `C[C@H](CCC(=O)NCCO)[C@H]1CC[C@H]2[C@@H]3CC[C@@H]4C[C@H](O)CC[C@]4(C)[C@H]3C[C@H](O)[C@]12C` [Example 12, N-(2-hydroxyethyl)-desoxycholamide], in “physchem” (dmso), the solubility was above 10000 µg/mL.
Consider `O=C(NCCO)c1ccccc1O` [Example 13, N-(2-hydroxethyl)-salicylamide], for which the “% of degranulated mast cells” value in the data set with mast cells [2] was 38%.
As to `O=C(NCCO)c1ccncc1` [Example 14, N-(2-hydroxyethyl)-isonicotinamide], the solubility (in data set [1] (methanol); in “water solubility”) was above 10000 µg/mL each time.
“substance P (RPKPQQFFGLM; ends and bridges not checked; UniProt P20366 58-68, looked up) [reference compound]”: the entries for the “% of degranulated mast cells” value (with mast cells [6]; in data set [7]; in the data set with mast cells [2]) were 94%, 96% and 92%, respectively. Also, in the data set on mast cells [6] (rat pinna, intradermal, result in words), the “mast cells degranulation (morphological analysis)” value was “induced a degranulation in the majority of mast cells”.
